In US20250197382A1, “KIF18A INHIBITOR” (WIGEN BIOMEDICINE TECHNOLOGY (SHANGHAI) CO., LTD., priority 2022, published 2025):

target: Recombinant human KIF18A (1-467His-tagged) protein (Homo sapiens (Human), UniProt Q8NI77); assay: KIF18A enzyme assay (microtubule-stimulated ATPase activity, ADP-Glo); assay type: biochemical; settings: 30 nM KIF18A, ATP 75 μM, read-out: inhibitory activity against KIF18A IC50
Method: Biological Example 1. Assay for In Vitro Inhibition of Enzymatic Activity of KIF18A by Compounds of the Present Invention
KIF18A enzyme assay: The enzymatic activity of KIF18A after treatment with the compounds was measured by an assay of microtubule-stimulated ATPase activity. ADP generated from the ATPase reaction was measured in this assay. The compounds were serially diluted 2-fold in DMSO over a range of 22 concentration points. Recombinant human KIF18A (1-467His-tagged) protein was expressed using a baculovirus system. Concentrations of KIF18A protein, microtubules, and ATP in the reaction were optimized for a standardized homogenous enzyme assay using an ADP-Glo kinase/ATPase assay kit. A reaction buffer [(15 mM Tris, pH 7.5), 10 mM MgCl2, 0.01% PluronicF-68, 1 μM paclitaxel, and 30 μg/mL pig microtubules] was prepared. The compounds and KIF18A protein (30 nM) were added to the prepared reaction buffer, and the reaction mixture was incubated at room temperature for 15 min, followed by addition of ATP (Km, 75 μM). The resulting reaction mixture was incubated at room temperature for another 15 min. 5 μL of ADP-Glo reagent and 2.5 μL of the reaction mixture were mixed and the resulting mixture was incubated at room temperature for 40 min. 10 μL of ADP-Glo detection reagent was added and the mixture was incubated at room temperature for 40 min. Luminescence was measured using a microplate reader and compared with that of the DMSO group, and then the inhibition percentages and IC50 values of the compounds were calculated.

Recombinant human KIF18A (1-467His-tagged) protein, sequence (Q8NI77 1-467): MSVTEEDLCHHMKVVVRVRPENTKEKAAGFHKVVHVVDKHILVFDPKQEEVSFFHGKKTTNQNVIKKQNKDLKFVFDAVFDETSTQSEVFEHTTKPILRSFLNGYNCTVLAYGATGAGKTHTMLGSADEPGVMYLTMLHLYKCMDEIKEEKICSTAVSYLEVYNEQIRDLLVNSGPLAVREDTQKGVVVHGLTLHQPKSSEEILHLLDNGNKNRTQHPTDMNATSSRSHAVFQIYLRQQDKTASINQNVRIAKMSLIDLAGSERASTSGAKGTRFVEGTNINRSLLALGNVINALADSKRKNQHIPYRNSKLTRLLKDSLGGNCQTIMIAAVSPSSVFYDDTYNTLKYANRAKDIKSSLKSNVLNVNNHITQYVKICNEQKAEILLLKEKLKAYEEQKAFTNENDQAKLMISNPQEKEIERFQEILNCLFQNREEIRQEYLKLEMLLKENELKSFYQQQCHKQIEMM
Recombinant human KIF18A (1-467His-tagged) protein, sequence (P02550 whole entry partner): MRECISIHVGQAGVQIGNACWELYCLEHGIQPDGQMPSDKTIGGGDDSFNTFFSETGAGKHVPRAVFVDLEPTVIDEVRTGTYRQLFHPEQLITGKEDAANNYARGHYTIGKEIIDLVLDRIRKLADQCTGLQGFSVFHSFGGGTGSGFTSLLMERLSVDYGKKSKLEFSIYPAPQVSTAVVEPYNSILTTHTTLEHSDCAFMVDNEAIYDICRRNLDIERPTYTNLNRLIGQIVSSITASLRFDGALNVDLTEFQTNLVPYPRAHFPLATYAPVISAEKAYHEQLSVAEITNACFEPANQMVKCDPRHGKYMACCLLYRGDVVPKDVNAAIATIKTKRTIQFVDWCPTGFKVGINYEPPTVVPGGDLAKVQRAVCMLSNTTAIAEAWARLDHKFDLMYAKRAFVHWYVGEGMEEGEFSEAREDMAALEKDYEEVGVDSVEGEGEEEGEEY
Recombinant human KIF18A (1-467His-tagged) protein, sequence (P02554 whole entry partner): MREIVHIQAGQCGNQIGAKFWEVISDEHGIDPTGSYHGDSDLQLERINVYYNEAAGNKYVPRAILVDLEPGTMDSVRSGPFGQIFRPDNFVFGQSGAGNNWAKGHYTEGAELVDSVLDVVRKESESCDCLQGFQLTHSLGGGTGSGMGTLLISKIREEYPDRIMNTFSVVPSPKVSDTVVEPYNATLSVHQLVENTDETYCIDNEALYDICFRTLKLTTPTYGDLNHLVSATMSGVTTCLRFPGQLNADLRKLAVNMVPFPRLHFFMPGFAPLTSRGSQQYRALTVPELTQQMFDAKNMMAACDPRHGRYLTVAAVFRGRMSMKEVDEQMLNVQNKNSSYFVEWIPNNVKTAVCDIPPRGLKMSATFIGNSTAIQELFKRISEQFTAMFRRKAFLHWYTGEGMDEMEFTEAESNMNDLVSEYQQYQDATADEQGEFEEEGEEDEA

SMILES	IC50
C[C@H](CO)NS(=O)(=O)c1ccc(C(=O)Nc2cc(N3CCO[C@H](C)C3)c3c(ccn3C)c2)c(N2CCC3(CC2)CC3)c1 [Compound 416]	≤ 100 nM
C[C@@H]1CN(c2cc(C(=O)Nc3ccc(S(=O)(=O)NCCO)cc3N3CCC4(CC3)CC4)cc3c2OCC3)CCO1 [Compound 50]	≤ 100 nM
CN1CCc2cc(NC(=O)c3ccc(S(=O)(=O)NCCO)cc3N3CCC4(CC3)CC4)cc(N3CCC4(CC4)C3)c21 [Compound 278]	≤ 100 nM
O=C(Nc1cc(N2CCC(F)(F)CC2)c2[nH]ccc2c1)c1ccc(NS(=O)(=O)CCO)cc1N1CCC2(CC1)CC2 [Compound 521]	≤ 100 nM
Cn1ccc2cc(NC(=O)c3ccc(S(=O)(=O)NCCO)cc3N3CCC4(CC3)CC4)cc(N3CC4CC4C3)c21 (stereo not drawn) [Compound 410]	≤ 100 nM
CN1CCc2cc(NC(=O)c3ccc(NS(=O)(=O)CCO)cc3N3CCC4(CC3)CC4)nc(NC(C)(C)CO)c21 [Compound 331]	≤ 100 nM
Cn1ccc2cc(C(=O)Nc3ccc(NS(=O)(=O)CCO)cc3N3CCC4(CC3)CC4)cc(OCCC(F)(F)F)c21 [Compound 421]	≤ 100 nM
C[C@H](CO)S(=O)(=O)Nc1ccc(C(=O)Nc2cc3ccoc3c(N3CCC(F)(F)CC3)n2)c(N2CCC3(CC2)CC3)c1 [Compound 206]	≤ 100 nM
C[C@@H]1CN(c2cc(C(=O)Nc3ccc(S(=O)(=O)N[C@@H](C)CO)cc3N3CCC4(CC3)CC4)cc3c2OCC3)CCO1 [Compound 63]	≤ 100 nM
O=C(Nc1cc2ccoc2c(N2CCOCC2)n1)c1ccc(NS(=O)(=O)CCO)cc1N1CCC2(CC1)CC2 [Compound 204]	≤ 100 nM
Cn1ccc2cc(C(=O)Nc3ccc(NS(=O)(=O)CCO)cc3N3CCC4(CC3)CC4)cc(OC3CCC3)c21 [Compound 423]	≤ 100 nM
CN1CCc2cc(C(=O)Nc3ccc(NS(=O)(=O)CCO)cc3N3CCC4(CC3)CC4)nc(N3CC(F)(F)C3)c21 [Compound 356]	≤ 100 nM
C[C@H]1CN(c2nc(NC(=O)c3ccc(NS(=O)(=O)CCO)cc3N3CCC4(CC3)CC4)cc3ccn(C)c23)CCO1 [Compound 451]	≤ 100 nM
CN1CCc2cc(C(=O)Nc3ccc(NS(=O)(=O)CCO)cc3N3CCC4(CC3)CC4)nc(OC3CCC3)c21 [Compound 359]	≤ 100 nM
C[C@@H](CO)S(=O)(=O)Nc1ccc(C(=O)Nc2cc(N3CCC(F)(F)CC3)c3occc3c2)c(N2CCC3(CC2)CC3)c1 [Compound 141]	≤ 100 nM
O=C(Nc1cc(N2CC(F)(F)C2)c2occc2c1)c1ccc(S(=O)(=O)NCCO)cc1N1CCC2(CC1)CC2 [Compound 148]	≤ 100 nM
C[C@@H]1CN(c2cc(C(=O)Nc3ccc(NS(=O)(=O)[C@@H](C)CO)cc3N3CCC4(CC3)CC4)cc3c2OCC3)CCO1 [Compound 47]	≤ 100 nM
O=C(Nc1ccc(S(=O)(=O)NCCO)cc1N1CCC2(CC1)CC2)c1cc2c(c(N3CCC4(CC4)C3)n1)OCC2 [Compound 118]	≤ 100 nM
CN1CCc2cc(C(=O)Nc3ccc(S(=O)(=O)NCCO)cc3N3CCC4(CC3)CC4)nc(N3CCOCC3)c21 [Compound 380]	≤ 100 nM
C[C@H](CO)NS(=O)(=O)c1ccc(NC(=O)c2cc3ccoc3c(N3CCC(F)(F)CC3)n2)c(N2CCC3(CC2)CC3)c1 [Compound 254]	≤ 100 nM
C[C@H](CO)NS(=O)(=O)c1ccc(NC(=O)c2cc3ccn(C)c3c(N3CCO[C@H](C)C3)n2)c(N2CCC3(CC2)CC3)c1 [Compound 512]	≤ 100 nM
C[C@@H]1CN(c2nc(NC(=O)c3ccc(S(=O)(=O)N[C@@H](C)CO)cc3N3CCC4(CC3)CC4)cc3ccn(C)c23)CCO1 [Compound 479]	≤ 100 nM
Cn1ccc2cc(C(=O)Nc3ccc(NS(=O)(=O)CCO)cc3N3CCC4(CC3)CC4)cc(N3CCOCC3)c21 [Compound 428]	≤ 100 nM
C[C@@H](CO)S(=O)(=O)Nc1ccc(C(=O)Nc2cc3ccn(C)c3c(N3CCC(F)(F)CC3)n2)c(N2CCC3(CC2)CC3)c1 [Compound 461]	≤ 100 nM

Now from value to compound:

IC50	SMILES
≤ 100 nM	CC(C)(CO)Nc1cc(NC(=O)c2ccc(NS(=O)(=O)CCO)cc2N2CCC3(CC2)CC3)cc2c1OCC2 [Compound 11]
≤ 100 nM	O=C(Nc1ccc(NS(=O)(=O)CCO)cc1N1CCC2(CC1)CC2)c1cc2c(c(N3CC(F)(F)C3)c1)OCC2 [Compound 36]
≤ 100 nM	C[C@@H]1CN(c2nc(C(=O)Nc3ccc(NS(=O)(=O)CCO)cc3N3CCC4(CC3)CC4)cc3c2N(C)CC3)CCO1 [Compound 354]
≤ 100 nM	CC1(F)CCN(c2cc(NC(=O)c3ccc(NS(=O)(=O)CCO)cc3N3CCC4(CC3)CC4)cc3c2OCC3)C1 (stereo not drawn) [Compound 8]
≤ 100 nM	O=C(Nc1ccc(S(=O)(=O)NCCO)cc1N1CCC2(CC1)CC2)c1cc2c(c(N3CC4CC4C3)c1)OCC2 (stereo not drawn) [Compound 58]
≤ 100 nM	Cn1ccc2cc(NC(=O)c3ccc(S(=O)(=O)NCCO)cc3N3CCC4(CC3)CC4)nc(N3CCC(F)(F)CC3)c21 [Compound 465]
≤ 100 nM	C[C@@H]1CN(c2cc(C(=O)Nc3ccc(NS(=O)(=O)[C@@H](C)CO)cc3N3CCC4(CC3)CC4)cc3c2N(C)CC3)CCO1 [Compound 303]
≤ 100 nM	C[C@@H]1CN(c2cc(NC(=O)c3ccc(NS(=O)(=O)CCO)cc3N3CCC4(CC3)CC4)cc3c2N(C)CC3)CCO1 [Compound 258]
≤ 100 nM	O=C(Nc1ccc(NS(=O)(=O)CCO)cc1N1CCC2(CC1)CC2)c1cc2ccoc2c(N2CCC(F)(F)CC2)n1 [Compound 225]
≤ 100 nM	C[C@@H]1CN(c2cc(NC(=O)c3ccc(S(=O)(=O)NCCO)cc3N3CCC4(CC3)CC4)cc3ccn(C)c23)CCO1 [Compound 402]
≤ 100 nM	C[C@H]1CN(c2nc(NC(=O)c3ccc(S(=O)(=O)NCCO)cc3N3CCC4(CC3)CC4)cc3c2OCC3)CCO1 [Compound 83]
≤ 100 nM	CN1CCc2cc(C(=O)Nc3ccc(NS(=O)(=O)CCO)cc3N3CCC4(CC3)CC4)nc(N3CCC(F)CC3)c21 [Compound 361]
≤ 100 nM	O=C(Nc1ccc(NS(=O)(=O)CCO)cc1N1CCC2(CC1)CC2)c1cc(OCCC(F)(F)F)c2occc2c1 [Compound 165]
≤ 100 nM	O=C(Nc1ccc(NS(=O)(=O)CCO)cc1N1CCC2(CC1)CC2)c1cc(N2CC3CC3C2)c2occc2c1 (stereo not drawn) [Compound 170]
≤ 100 nM	O=C(Nc1ccc(S(=O)(=O)NCCO)cc1N1CCC2(CC1)CC2)c1cc2ccoc2c(N2CCC3(CC3)C2)n1 [Compound 246]
≤ 100 nM	C[C@H](CO)NS(=O)(=O)c1ccc(C(=O)Nc2cc3c(c(N4CCC(F)(F)CC4)n2)N(C)CC3)c(N2CCC3(CC2)CC3)c1 [Compound 350]
≤ 100 nM	C[C@@H]1CN(c2nc(C(=O)Nc3ccc(NS(=O)(=O)[C@@H](C)CO)cc3N3CCC4(CC3)CC4)cc3c2N(C)CC3)CCO1 [Compound 367]

IC50	SMILES
≤ 100 nM	C[C@H]1CN(c2cc(C(=O)Nc3ccc(NS(=O)(=O)CCO)cc3N3CCC4(CC3)CC4)cc3c2OCC3)CCO1 [Compound 35]
≤ 100 nM	Cn1ccc2cc(NC(=O)c3ccc(NS(=O)(=O)CCO)cc3N3CCC4(CC3)CC4)cc(N3CCOCC3)c21 [Compound 396]
≤ 100 nM	Cn1ccc2cc(C(=O)Nc3ccc(NS(=O)(=O)CCO)cc3N3CCC4(CC3)CC4)nc(N3CCC4(CC4)C3)c21 [Compound 486]
≤ 100 nM	O=C(Nc1cc2c(c(OCCC(F)(F)F)c1)OCC2)c1ccc(S(=O)(=O)NCCO)cc1N1CCC2(CC1)CC2 [Compound 21]
≤ 100 nM	C[C@H](CO)NS(=O)(=O)c1ccc(NC(=O)c2cc3c(c(N4CCO[C@H](C)C4)n2)OCC3)c(N2CCC3(CC2)CC3)c1 [Compound 128]
≤ 100 nM	O=C(Nc1cc2ccoc2c(N2CCC(F)(F)CC2)n1)c1ccc(NS(=O)(=O)CCO)cc1N1CCC2(CC1)CC2 [Compound 193]
100 to 500 nM	O=C(Nc1cc2c(c(N3CCC(F)(F)CC3)c1)CCCC2)c1ccc(NS(=O)(=O)CCO)cc1N1CCC2(CC1)CC2 [Compound 531]
≤ 100 nM	O=C(Nc1cc(N2CCOCC2)c2occc2c1)c1ccc(NS(=O)(=O)CCO)cc1N1CCC2(CC1)CC2 [Compound 140]
≤ 100 nM	C[C@@H](CO)S(=O)(=O)Nc1ccc(NC(=O)c2cc3c(c(N4CCC(F)(F)CC4)c2)OCC3)c(N2CCC3(CC2)CC3)c1 [Compound 45]
≤ 100 nM	O=C(Nc1cc2c(c(N3CCC(F)(F)CC3)n1)OCCC2)c1ccc(S(=O)(=O)NCCO)cc1N1CCC2(CC1)CC2 [Compound 549]
≤ 100 nM	Cn1ccc2cc(C(=O)Nc3ccc(S(=O)(=O)NCCO)cc3N3CCC4(CC3)CC4)cc(N3CCC4(CC4)C3)c21 [Compound 438]
≤ 100 nM	C[C@@H](CO)S(=O)(=O)Nc1ccc(NC(=O)c2cc(N3CCC(F)(F)CC3)c3occc3c2)c(N2CCC3(CC2)CC3)c1 [Compound 173]
≤ 100 nM	O=C(Nc1ccc(NS(=O)(=O)CCO)cc1N1CCC2(CC1)CC2)c1cc(N2CCOCC2)c2occc2c1 [Compound 172]
≤ 100 nM	C[C@@H]1CN(c2cc(C(=O)Nc3ccc(NS(=O)(=O)CCO)cc3N3CCC4(CC3)CC4)cc3ccn(C)c23)CCO1 [Compound 418]
≤ 100 nM	Cn1ccc2cc(C(=O)Nc3ccc(NS(=O)(=O)CCO)cc3N3CCC4(CC3)CC4)nc(N3CCC(F)CC3)c21 [Compound 489]
≤ 100 nM	C[C@@H]1CN(c2cc(NC(=O)c3ccc(NS(=O)(=O)[C@H](C)CO)cc3N3CCC4(CC3)CC4)cc3ccoc23)CCO1 [Compound 144]
